Reference: patent publication US20250195530A1, “POLQ INHIBITORS” (ASTRAZENECA AB, priority 2022, published 2025)
Where two headings read alike, the source gives them in different places. Each block holds one compound with its values, some of them ahead of it.

Experiments:
DLD-1 BRCA2−/− cells = assay: Homologous recombination synthetic lethal inhibition of proliferation, DLD-1 BRCA2-/- (Cell Titre Glo 3D); assay type: cell-based; settings: for IC50: Homo sapiens
Procedure, shortened: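 Cells are seeded in RPMI 1640 (phenol red free, 10% FBS, GlutaMAX) onto pre-dosed compound (10 μM to 0.51 nM, three-fold). Plates are incubated at 37 °C, and medium plus compound are refreshed on day 6. Viability is read by CellTiter-Glo 3D at day 7 (DLD-1) or day 12 (DLD-1 BRCA2−/−), and the IC50 is fitted.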

DLD-1 cells = assay: Inhibition of proliferation, DLD-1 BRCA2 wt control (Cell Titre Glo 3D); assay type: cell-based; settings: for IC50: Homo sapiens
Source text: This assay identifies anti-proliferative effects of POLQ compounds in the homologous recombination deficient colorectal cell line DLD-1 BRCA2−/− over 8-9 population doublings (7 days for DLD-1 and 12 days for DLD-1 BRCA2−/−). DLD1 BRCA2 wt are used as a control to detect cell toxic effects not specific to homologous recombination deficiency.
DLD-1 BRCA2−/− and DLD-1 cells were kept in continuous culture in Assay Medium (RPMI 1640 phenol red free (Sigma R7509) containing 1% GlutaMAX (Gibco 35050) and 10% Foetal Bovine Serum (Gibco 10270-106)). On the day of the assay cells in culture of ˜80-90% confluent were used. Cell monolayers were washed with 10 mL PBS, then removed and added 2 mL TrypLE Express (Gibco 12604). The cells with TrypLE Express were incubated for 5 minutes in cell culture incubator and then the detached cells resuspend in 15 mL Assay Medium. Cells were counted using a ViCell and the cell images were monitored for clumps of cells, ideally they should be single or <3 cell clusters. The cells were diluted to 3,000 cells/mL of DLD-1 BRCA2−/− and 1,500 cells/mL of DLD-1 in Assay Medium and 100 μL added per well of transparent bottomed, black, tissue culture-treated 96-well plates (CoStar, No. 3904) Assay Ready Plates. The Assay Ready Plates contain a 10 point 10 μM to 0.51 nM dose range with three-fold dilutions in DMSO with a final volume of 100 nL. The plates were incubated at 37° C. with 5% C02 for 6 days. On day 6, 100 μL/well of Assay Medium was added to duplicate Assay Ready Plates. 90 μL of culture medium was removed from the cell plates and replenished with the Assay Media and compounds from the duplicate Assay Ready Plates using the Bravo. The plates were further incubated at 37° C. with 5% CO2. On day 7 the plates containing DLD-1 and Cell Titre Glo 3D (Promega G9683) were equilibrated to room temperature, then 60 μL of Cell Titre Glo 3D was added per well and incubated on a shaking platform for 30 min. Plates were read on the Envision measuring luminescence for 1 second per well. On day 12 the plates containing DLD-1 BRCA2−/− cells and Cell Titre Glo 3D (Promega G9683) were equilibrated to room temperature, then 60 μL Cell Titre Glo 3D added per well and incubated on a shaking platform for 30 min. Plates were read on the Envision measuring luminescence for 1 second per well. The data was exported into a suitable software package (such as Genedata) to perform curve fitting analysis. Inhibition of cell proliferation was expressed as an IC5o value and was determined by calculation of the concentration of compound that was required to give a 50% reduction of the average maximum Total Intensity signal.

[1] = DLD-1, 168 h, DLD-1 BRCA2 wt cells, 7 days, read-out: POLQ PD Prolif Lumin DLD1 mean pIC50 (converted)
[2] = DLD-1, first proliferation column (c5), DLD-1 BRCA2-/-, read-out: POLQ PD Prolif Lumin (converted)
[3] = DLD-1, second proliferation column (c6), DLD-1 BRCA2 wt control, read-out: POLQ PD Prolif Lumin (converted)
[4] = DLD-1, DLD-1 BRCA2-/- proliferation, column head only partly shown, read-out: POLQ PD Prolif Lumin (converted)
[5] = DLD-1, DLD-1 BRCA2 wt control proliferation, column head only partly shown, read-out: POLQ PD Prolif Lumin (converted)
[6] = DLD-1, DLD-1 BRCA2 −/−, mean, read-out: POLQ PD Prolif Lumin BRCA2 −/− mean pIC50 (converted)
[7] = DLD-1, DLD1 BRCA2 wt, mean, read-out: POLQ PD Prolif Lumin DLD1 mean pIC50 (converted)

IC50 (DLD-1 cells; [1]): 1260 nM
Structure (SMILES): CN1CCCC1CCOc1ccc(-c2nc3c(OC4(C)CC4)ncnc3n2Cc2ccccc2)c(Cl)c1 (racemic) [Example D2, 9-benzyl-8-(2-chloro-4-(2-(1-methylpyrrolidin-2-yl)ethoxy)phenyl)-6-(1-methylcyclopropoxy)-9H-purine]
IC50 (DLD-1 BRCA2−/− cells; DLD-1, 288 h, DLD-1 BRCA2−/− cells, 12 days, read-out: POLQ PD Prolif Lumin BRCA2 −/− mean pIC50 (converted)): 15.8 nM

IC50 (DLD-1 cells; [3]): > 10000 nM
Structure (SMILES): Cc1ccnc(Cn2c(-c3ccc(OC4CNC(=O)C4)cc3Cl)nc3c(OC4(C)CC4)ncnc32)c1 (racemic) [Example T179, 4-(3-chloro-4-(6-(1-methylcyclopropoxy)-9-((4-methylpyridin-2-yl)methyl)-9H-purin-8-yl)phenoxy)pyrrolidin-2-one]
IC50 (DLD-1 BRCA2−/− cells; [2]): 316 nM

IC50 (DLD-1 cells; [3]): > 10000 nM
Structure (SMILES): Cc1ccnc(Cn2c(-c3ccc(OC4CNC(=O)OC4)cc3Cl)nc3c(OC4(C)CC4)ncnc32)c1 (racemic) [Example T187, 5-(3-chloro-4-(6-(1-methylcyclopropoxy)-9-((4-methylpyridin-2-yl)methyl)-9H-purin-8-yl)phenoxy)-1,3-oxazinan-2-one]
IC50 (DLD-1 BRCA2−/− cells; [2]): 1000 nM

IC50 (DLD-1 cells; [5]): > 10000 nM
Structure (SMILES): CC(CCOc1ccc(-c2nc3c(OC4(C)CC4)ncnc3n2Cc2c(F)c(F)c(F)c(F)c2F)c(Cl)c1)C(=O)O (racemic) [Example T251, 4-(3-chloro-4-(6-(1-methylcyclopropoxy)-9-((perfluorophenyl)methyl)-9H-purin-8-yl)phenoxy)-2-methylbutanoic acid]
IC50 (DLD-1 BRCA2−/− cells; [4]): 2000 nM

IC50 (DLD-1 cells; [5]): > 10000 nM
Structure (SMILES): CC(CCOc1ccc(-c2nc3c(OC4(C#N)CC4)ncnc3n2Cc2cccc(Cl)c2)c(Cl)c1)C(=O)O (racemic) [Example T252, 4-(3-chloro-4-(9-(3-chlorobenzyl)-6-(1-cyanocyclopropoxy)-9H-purin-8-yl)phenoxy)-2-methylbutanoic acid]
IC50 (DLD-1 BRCA2−/− cells; [4]): 398 nM

IC50 (DLD-1 cells; [5]): > 10000 nM
Structure (SMILES): CC(CCOc1ccc(-c2nc3c(OC4(C)CC4)ncnc3n2Cc2cc(Br)ccc2F)c(Cl)c1)C(=O)O (racemic) [Example T258, 4-(4-(9-(5-bromo-2-fluorobenzyl)-6-(1-methylcyclopropoxy)-9H-purin-8-yl)-3-chlorophenoxy)-2-methylbutanoic acid]
IC50 (DLD-1 BRCA2−/− cells; [4]): 79.4 nM

IC50 (DLD-1 cells; [5]): > 10000 nM
Structure (SMILES): CC(CCOc1ccc(-c2nc3c(OC4(C)CC4)ncnc3n2Cc2c(Cl)cccc2Br)c(Cl)c1)C(=O)O (racemic) [Example T259, 4-(4-(9-(2-bromo-6-chlorobenzyl)-6-(1-methylcyclopropoxy)-9H-purin-8-yl)-3-chlorophenoxy)-2-methylbutanoic acid]
IC50 (DLD-1 BRCA2−/− cells; [4]): 3160 nM

IC50 (DLD-1 cells; [5]): > 10000 nM
Structure (SMILES): CC(CCOc1ccc(-c2nc3c(OC4(C)CC4)ncnc3n2Cc2cc(F)cc(F)c2)c(Cl)c1)C(=O)O (racemic) [Example T260, 4-(3-chloro-4-(9-(3,5-difluorobenzyl)-6-(1-methylcyclopropoxy)-9H-purin-8-yl)phenoxy)-2-methylbutanoic acid]
IC50 (DLD-1 BRCA2−/− cells; [4]): 251 nM

IC50 (DLD-1 cells; [3]): > 10000 nM
Structure (SMILES): Cc1ccnc(Cn2c(-c3ccc(C4CCC(=O)N4)cc3Cl)nc3c(OC4(C)CC4)ncnc32)c1 (single isomer, unassigned) [Example T173, 5-(3-chloro-4-(6-(1-methylcyclopropoxy)-9-((4-methylpyridin-2-yl)methyl)-9H-purin-8-yl)phenyl)pyrrolidin-2-one]

IC50 (DLD-1 cells; [3]): > 10000 nM
Structure (SMILES): Cc1ccnc(Cn2c(-c3ccc(OC4CCCNCC4)cc3Cl)nc3c(OC4(C)CC4)ncnc32)c1 (single isomer, unassigned) [Example T509, 8-(4-(azepan-4-yloxy)-2-chlorophenyl)-6-(1-methylcyclopropoxy)-9-((4-methylpyridin-2-yl)methyl)-9H-purine]

IC50 (DLD-1 cells; [1]): 7940 nM
Structure (SMILES): Cc1cc(OC2CNC2)ncc1-c1nc2c(OC3(C)CC3)ncnc2n1Cc1ccccc1 [Example G17, 8-{6-[(azetidin-3-yl)oxy]-4-methylpyridin-3-yl}-9-benzyl-6-[(1-methylcyclopropyl)oxy]-9H-purine]

IC50 (DLD-1 cells; [1]): > 10000 nM
Structure (SMILES): CC1(Oc2ncnc3c2nc(-c2ccc(OCCN4CCNCC4)cc2Cl)n3CCc2ccccn2)CC1 [Example J11, 8-(2-chloro-4-(2-(piperazin-1-yl)ethoxy)phenyl)-6-(1-methylcyclopropoxy)-9-(2-(pyridin-2-yl)ethyl)-9H-purine]

IC50 (DLD-1 cells; [3]): > 10000 nM
Structure (SMILES): Cn1cnnc1Cn1c(-c2ccc(OCCN3CCNCC3)cc2Cl)nc2c(OC3(C)CC3)ncnc21 [Example T150, 8-(2-chloro-4-(2-(piperazin-1-yl)ethoxy)phenyl)-9-((4-methyl-4H-1,2,4-triazol-3-yl)methyl)-6-(1-methylcyclopropoxy)-9H-purine]

Structure (SMILES): CC1(Oc2ncnc3c2nc(-c2ccc(O[C@H]4CC[C@H](C(=O)O)CC4)cc2Cl)n3Cc2cc(Cl)ccc2F)CC1 [Example U49, (1r,4r)-4-(3-chloro-4-(9-(5-chloro-2-fluorobenzyl)-6-(1-methylcyclopropoxy)-9H-purin-8-yl)phenoxy)cyclohexane-1-carboxylic acid]
POLQ PD Prolif Lumin BRCA2 −/− mean pIC50 (DLD-1 BRCA2−/− cells; DLD-1 BRCA2 −/−, mean): 7.3

Structure (SMILES): CC1(Oc2ncnc3c2nc(-c2cccc(OCC(F)(F)CC(=O)O)c2Cl)n3Cc2cccc(Cl)c2)CC1 [Example U63, 4-(2-chloro-3-(9-(3-chlorobenzyl)-6-(1-methylcyclopropoxy)-9H-purin-8-yl)phenoxy)-3,3-difluorobutanoic acid]
IC50 (DLD-1 BRCA2−/− cells; [6]): 501 nM

Structure (SMILES): CC1(Oc2ncnc3c2nc(-c2c(F)ccc(OCCC(=O)O)c2Cl)n3Cc2cccc(Cl)c2)CC1 [Example U66, 3-(2-chloro-3-(9-(3-chlorobenzyl)-6-(1-methylcyclopropoxy)-9H-purin-8-yl)-4-fluorophenoxy)propanoic acid]
IC50 (DLD-1 BRCA2−/− cells; [6]): 200 nM

IC50 (DLD-1 cells; [7]): > 10000 nM
Structure (SMILES): COc1ccc(F)cc1Cn1c(-c2cccc(OCCCOCC(=O)O)c2Cl)nc2c(OC3(C)CC3)ncnc21 [Example U71, 2-(3-(2-chloro-3-(9-(5-fluoro-2-methoxybenzyl)-6-(1-methylcyclopropoxy)-9H-purin-8-yl)phenoxy)propoxy)acetic acid]

Structure (SMILES): COc1ccc(F)cc1Cn1c(-c2cccc(OCC[C@H](C)C(=O)O)c2Cl)nc2c(OC3(C)CC3)ncnc21 [Example U72, (S)-4-(2-chloro-3-(9-(5-fluoro-2-methoxybenzyl)-6-(1-methylcyclopropoxy)-9H-purin-8-yl)phenoxy)-2-methylbutanoic acid]
IC50 (DLD-1 BRCA2−/− cells; [6]): 1.58 nM

IC50 (DLD-1 cells; [7]): > 10000 nM
Structure (SMILES): COc1ccc(F)cc1Cn1c(-c2cccc(OCC[C@@H](C)C(=O)O)c2Cl)nc2c(OC3(C)CC3)ncnc21 [Example U78, (R)-4-(2-chloro-3-(9-(5-fluoro-2-methoxybenzyl)-6-(1-methylcyclopropoxy)-9H-purin-8-yl)phenoxy)-2-methylbutanoic acid]

POLQ PD Prolif Lumin DLD1 mean pIC50 (DLD-1 cells; DLD1 BRCA2 wt, mean): <5.0
Structure (SMILES): CC1(Oc2ncnc3c2nc(-c2cccc(O[C@H]4CC[C@H](C(=O)O)CC4)c2Cl)n3Cc2cc(Cl)ccc2C#N)CC1 [Example U85, (1r,4r)-4-(2-chloro-3-(9-(5-chloro-2-cyanobenzyl)-6-(1-methylcyclopropoxy)-9H-purin-8-yl)phenoxy)cyclohexane-1-carboxylic acid]

IC50 (DLD-1 cells; [7]): > 10000 nM
Structure (SMILES): COc1ccc(Cl)cc1Cn1c(-c2ccc(OCCCOC(C)(C)C(=O)O)cc2Cl)nc2c(OC3(C)CC3)ncnc21 [Example U92, 2-(3-(3-chloro-4-(9-(5-chloro-2-methoxybenzyl)-6-(1-methylcyclopropoxy)-9H-purin-8-yl)phenoxy)propoxy)-2-methylpropanoic acid]
